Source: patent publication US10570179B2, “Substituted urea depsipeptide analogs as activators of the CLPP endopeptidase” (priority 2016, dated 2020)
In brackets after ≈: the same amount, converted by molar mass. Like-named read-outs stand apart in the source and are kept apart here. Numbered stars: 1 amine (or outer) side, 2 acyl side, 3 side chain; on linkers, the order of the positions; unused ones are H or OH. Bridge positions count the residues as written; N and C are the ends. Square brackets hold non-standard residues; d marks the D form. Peptide text beside a SMILES is read from it. * marks the point of attachment. X6 = O=C([C@@H]1CS(=O)(=O)CCN1[*:1])[*:2]; Phe(3-Me) = Cc1cccc(C[C@H](N)C(=O)O)c1; Pro(4S-Me) = C[C@@H]1CN[C@H](C(=O)O)C1; NH(4-Cl-2-F-phenyl) = Fc1cc(Cl)ccc1N*; Pro(4R-Me) = C[C@H]1CN[C@H](C(=O)O)C1; Propanoyl(3-NMe2) = CN(C)CCC(=O)*; X1 = O=C([C@@H]1CSCCN1[*:1])[*:2]; Hyp = O=C(O)[C@@H]1C[C@@H](O)CN1; NH(4-Me-phenyl) = Cc1ccc(N*)cc1; aThr = C[C@H](O)[C@H](N)C(=O)O; Pip = O=C(O)[C@@H]1CCCCN1; 4Abz = Nc1ccc(C(=O)O)cc1; CO = O=C([*:1])[*:2]

How the values were obtained:
[1] = Microsomal metabolic stability; format: in vitro ADME, mouse
How it was run: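 CD-1 mouse liver microsomes (0.6381 mg/mL protein microsomal solution, 0.1 M potassium phosphate pH 7.4 with EDTA) were incubated with compound and an NADPH-regenerating system at 37 °C, in triplicate. Acetonitrile/warfarin quench at 0, 15, 30, 60, 120 and 240 min, then LCMS. Half-life came from a first-order least-squares fit.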

[2] = Plasma stability assay; format: in vitro ADME, human
How it was run: (§1)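 Compounds at 10 μM final in human or mouse plasma, incubated at 37 °C and sampled at 0, 3, 24 and 48 h in triplicate. Reactions quenched with cold acetonitrile containing warfarin internal standard; parent measured by LC-MS. Half-life from least-squares first-order fit.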

[3] = Solubility determination; format: physicochemical; conditions: for solubility kinetic at 10 min: 22 °C, aqueous buffer, kinetic from dmso stock
How it was run: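 DMSO stock spiked into DPBS at 100 µM final, in triplicate, shaken 10 min, then centrifuged 20 min at 22 °C. Supernatant quantified by UPLC-UV and single-ion-recording MS against DMSO calibration standards (0.098–100 µM), using 1/x²-weighted linear regression.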

[4] = Plasma stability assay; format: in vitro ADME, mouse
How it was run: as §1

[5] = microsomal metabolic stability half-life, mouse liver microsomes
[6] = plasma stability half-life, human plasma, 37° C.
[7] = solubility in DPBS, 100 μM test samples, LCMS, read-out: LCMS
[8] = plasma stability half-life, mouse plasma, 37° C.

SMILES	Mouse [1, 5]	Human [2, 6]	solubility kinetic at 10 min [3, 7]	μsol (μM) ([3]; solubility)	Mouse [4, 8]	Mouse ([1]; CD-1, mouse, pH 7.4)	Human ([2]; human, 10 μM)	μsol (μM) [3]	solubility kinetic at 10 min [3]	Mouse ([4]; mouse, 10 μM)
CCOC(=O)c1ccc(NC(=O)N[C@@H](Cc2cccc(C)c2)C(=O)N[C@@H]2C(=O)N3C[C@H](O)C[C@H]3C(=O)N3CCCC[C@H]3C(=O)N[C@@H](C)C(=O)N3C[C@H](C)C[C@H]3C(=O)O[C@H]2C)cc1 [Compound 36, ETHYL 4-(3-((S)-1-(((2R,6S,8AS,14AS,16R,20S,21S,23AS)-16-HYDROXY-2,6,21-TRIMETHYL-5,8,14,19,23-PENTAOXOOCTADECAHYDRO-1H,5H,14H,19H-PYRIDO[2,1-I]DIPYRROLO[2,1-C:2′,1′-L][1]OXA[4,7,10,13]TETRAAZACYCLOHEXADECIN-20-YL)AMINO)-1-OXO-3-(M-TOLYL)PROPAN-2-YL)UREIDO)BENZOATE] ({OEt-4Abz-CO}-[Phe(3-Me)][aThr][Hyp][Pip]A[Pro(4R-Me)]; ester 2-C)	11.23 ± 1.23 h	57.50 h	8.17 ± 0.167 µM (≈ 7.02 µg/mL)	6.4 ± .40 µM	0.30 h					
Cc1cccc(C[C@H](NC(=O)Nc2ccc(Cl)cc2F)C(=O)N[C@@H]2C(=O)N3CCC[C@H]3C(=O)N3CCSC[C@H]3C(=O)N[C@@H](C)C(=O)N3C[C@H](C)C[C@H]3C(=O)O[C@H]2C)c1 [Compound 38, (S)-2-(3-(4-CHLORO-2-FLUOROPHENYL)UREIDO)-3-(M-TOLYL)-N-((6AS,12S,13S,15AS,17R,21S,23AR)-13,17,21-TRIMETHYL-6,11,15,20,23-PENTAOXOOCTADECAHYDRO-6H,11H,15H-DIPYRROLO[2,1-C:2′,1′-L][1,4]THIAZINO[3,4-I][1]OXA[4,7,10,13]TETRAAZACYCLOHEXADECIN-12-YL)PROPANAMIDE] ({NH(4-Cl-2-F-phenyl)-CO}-[Phe(3-Me)][aThr]P[X1]A[Pro(4R-Me)]; ester 2-C)						1.25 ± .253 h	>50 h	1.7 ± .70 µM	0.011 ± 0.011 µM (≈ 0.00927 µg/mL)	>50 h
Cc1cccc(C[C@H](NC(=O)Nc2ccc(Cl)cc2F)C(=O)N[C@@H]2C(=O)N3CCC[C@H]3C(=O)N3CCS(=O)(=O)C[C@H]3C(=O)N[C@@H](C)C(=O)N3C[C@H](C)C[C@H]3C(=O)O[C@H]2C)c1 [Compound 40, (S)-2-(3-(4-CHLORO-2-FLUOROPHENYL)UREIDO)-3-(M-TOLYL)-N-((6AS,12S,13S,15AS,17R,21S,23AR)-13,17,21-TRIMETHYL-2,2-DIOXIDO-6,11,15,20,23-PENTAOXOOCTADECAHYDRO-6H,11H,15H-DIPYRROLO[2,1-C:2′,1′-L][1,4]THIAZINO[3,4-I][1]OXA[4,7,10,13]TETRAAZACYCLOHEXADECIN-12-YL)PROPANAMIDE] ({NH(4-Cl-2-F-phenyl)-CO}-[Phe(3-Me)][aThr]P[X6]A[Pro(4R-Me)]; ester 2-C)						6.54 ± .543 h	>50 h	0 µM	2.21 ± 0.208 µM (≈ 1.93 µg/mL)	>50 h
Cc1cccc(C[C@H](NC(=O)Nc2ccc(Cl)cc2F)C(=O)N[C@@H]2C(=O)N3C[C@H](O)C[C@H]3C(=O)N3CCSC[C@H]3C(=O)N[C@@H](C)C(=O)N3C[C@H](C)C[C@H]3C(=O)O[C@H]2C)c1 [Compound 41, (S)-2-(3-(4-CHLORO-2-FLUOROPHENYL)UREIDO)-N-((6AS,8R,12S,13S,15AS,17R,21S,23AR)-8-HYDROXY-13,17,21-TRIMETHYL-6,11,15,20,23-PENTAOXOOCTADECAHYDRO-6H,11H,15H-DIPYRROLO[2,1-C:2′,1′-L][1,4]THIAZINO[3,4-I][1]OXA[4,7,10,13]TETRAAZACYCLOHEXADECIN-12-YL)-3-(M-TOLYL)PROPANAMIDE] ({NH(4-Cl-2-F-phenyl)-CO}-[Phe(3-Me)][aThr][Hyp][X1]A[Pro(4R-Me)]; ester 2-C)						0.11 ± .113 h	>50 h	2.4 ± .40 µM	1.4 ± 0.4 µM (≈ 1.2 µg/mL)	>50 h
Cc1ccc(NC(=O)N[C@@H](Cc2cccc(C)c2)C(=O)N[C@@H]2C(=O)N3C[C@H](O)C[C@H]3C(=O)N3CCSC[C@H]3C(=O)N[C@@H](C)C(=O)N3C[C@H](C)C[C@H]3C(=O)O[C@H]2C)cc1 [Compound 42, (S)—N-((6AS,8R,12S,13S,15AS,17R,21S,23AR)-8-HYDROXY-13,17,21-TRIMETHYL-6,11,15,20,23-PENTAOXOOCTADECAHYDRO-6H,11H,15H-DIPYRROLO[2,1-C:2′,1′-L][1,4]THIAZINO[3,4-I][1]OXA[4,7,10,13]TETRAAZACYCLOHEXADECIN-12-YL)-3-(M-TOLYL)-2-(3-(P-TOLYL)UREIDO)PROPANAMIDE] ({NH(4-Me-phenyl)-CO}-[Phe(3-Me)][aThr][Hyp][X1]A[Pro(4R-Me)]; ester 2-C)	0.78 ± .783 h	>50 h	29.2 ± 9.2 µM (≈ 23.9 µg/mL)	29.7 ± 9.7 µM	>50 h					
Cc1ccc(NC(=O)N[C@@H](Cc2cccc(C)c2)C(=O)N[C@@H]2C(=O)N3CCC[C@H]3C(=O)N3CCCC[C@H]3C(=O)N[C@@H](C)C(=O)N3C[C@@H](C)C[C@H]3C(=O)O[C@H]2C)cc1 [Compound 45, (S)-3-(M-TOLYL)-2-(3-(P-TOLYL)UREIDO)-N-((2S,6S,8AS,14AS,20S,21S,23AS)-2,6,21-TRIMETHYL-5,8,14,19,23-PENTAOXOOCTADECAHYDRO-1H,5H,14H,19H-PYRIDO[2,1-I]DIPYRROLO[2,1-C:2′,1′-L][1]OXA[4,7,10,13]TETRAAZACYCLOHEXADECIN-20-YL)PROPANAMIDE] ({NH(4-Me-phenyl)-CO}-[Phe(3-Me)][aThr]P[Pip]A[Pro(4S-Me)]; ester 2-C)	2.35 ± 0.14 h	>50 h	44.5 ± 2.7 µM (≈ 35 µg/mL)	44.7 ± 4.2 µM	>50 h					
Cc1cccc(C[C@H](NC(=O)Nc2ccc(Cl)cc2F)C(=O)N[C@@H]2C(=O)N3C[C@H](OC(=O)CCN(C)C)C[C@H]3C(=O)N3CCCC[C@H]3C(=O)N[C@@H](C)C(=O)N3C[C@H](C)C[C@H]3C(=O)O[C@H]2C)c1 [Compound 46, (2R,6S,8AS,14AS,16R,20S,21S,23AS)-20-((S)-2-(3-(4-CHLORO-2-FLUOROPHENYL)UREIDO)-3-(M-TOLYL)PROPANAMIDO)-2,6,21-TRIMETHYL-5,8,14,19,23-PENTAOXOOCTADECAHYDRO-1H,5H,14H,19H-PYRIDO[2,1-I]DIPYRROLO[2,1-C:2′,1′-L][1]OXA[4,7,10,13]TETRAAZACYCLOHEXADECIN-16-YL 3-(DIMETHYLAMINO)PROPANOATE] ({NH(4-Cl-2-F-phenyl)-CO}-[Phe(3-Me)][aThr][Hyp](Propanoyl(3-NMe2))[Pip]A[Pro(4R-Me)]; ester 2-C)						0.22 ± 0.0 h	0.57 h	12.1 ± 1.5 µM	195 ± 27 µM (≈ 183 µg/mL)	0.49 h
Cc1ccc(NC(=O)N[C@@H](Cc2cccc(C)c2)C(=O)N[C@H]2COC(=O)[C@@H]3CCCN3C(=O)[C@H](C)NC(=O)[C@@H]3CCCCN3C(=O)[C@@H]3C[C@@H](O)CN3C2=O)cc1 [Compound 49, (S)—N-((6S,8AS,14AS,16R,20S,23AS)-16-HYDROXY-6-METHYL-5,8,14,19,23-PENTAOXOOCTADECAHYDRO-1H,5H,14H,19H-PYRIDO[2,1-I]DIPYRROLO[2,1-C:2′,1′-L][1]OXA[4,7,10,13]TETRAAZACYCLOHEXADECIN-20-YL)-3-(M-TOLYL)-2-(3-(P-TOLYL)UREIDO)PROPANAMIDE]	4.37 ± .373 h	29.79 h	17 ± 6.97 µM (≈ 13.1 µg/mL)	8.5 ± .51 µM	22.75 h					
